Laboratory results: BindingDB's records for patent US20250313563 (The Broad Institute, 2025)
“And” between values parts separate entries of the source, which are not always exact repeats. Equal values may be shown once.

What was measured:
[1] = molecular target: Glycogen synthase kinase-3 beta (Homo sapiens, UniProt P49841); assay: TR-FRET Assay
In short: (§1)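 Enzyme and test compound were first incubated together for 30 minutes in assay buffer. The kinase reaction followed and was stopped with EDTA. The pSer641 signal was read by time-resolved FRET.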

[2] = molecular target: Glycogen synthase kinase-3 alpha (Homo sapiens, UniProt P49840); assay: TR-FRET Assay
Sequence of Glycogen synthase kinase-3 alpha (P49840 whole entry): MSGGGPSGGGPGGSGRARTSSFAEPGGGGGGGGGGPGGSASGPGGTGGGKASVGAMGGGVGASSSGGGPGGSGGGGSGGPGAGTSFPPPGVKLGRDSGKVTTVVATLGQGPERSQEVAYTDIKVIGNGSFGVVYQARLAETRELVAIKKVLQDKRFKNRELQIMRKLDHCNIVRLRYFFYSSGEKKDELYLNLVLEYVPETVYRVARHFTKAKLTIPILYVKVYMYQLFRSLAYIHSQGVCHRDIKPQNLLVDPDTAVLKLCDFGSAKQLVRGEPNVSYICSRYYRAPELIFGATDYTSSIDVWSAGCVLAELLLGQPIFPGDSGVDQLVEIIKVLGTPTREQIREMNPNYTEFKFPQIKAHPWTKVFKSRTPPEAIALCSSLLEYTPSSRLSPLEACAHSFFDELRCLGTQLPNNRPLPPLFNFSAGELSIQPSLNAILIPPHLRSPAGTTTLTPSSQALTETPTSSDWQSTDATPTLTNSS
In short: as §1

Sequence of Glycogen synthase kinase-3 beta (P49841 whole entry): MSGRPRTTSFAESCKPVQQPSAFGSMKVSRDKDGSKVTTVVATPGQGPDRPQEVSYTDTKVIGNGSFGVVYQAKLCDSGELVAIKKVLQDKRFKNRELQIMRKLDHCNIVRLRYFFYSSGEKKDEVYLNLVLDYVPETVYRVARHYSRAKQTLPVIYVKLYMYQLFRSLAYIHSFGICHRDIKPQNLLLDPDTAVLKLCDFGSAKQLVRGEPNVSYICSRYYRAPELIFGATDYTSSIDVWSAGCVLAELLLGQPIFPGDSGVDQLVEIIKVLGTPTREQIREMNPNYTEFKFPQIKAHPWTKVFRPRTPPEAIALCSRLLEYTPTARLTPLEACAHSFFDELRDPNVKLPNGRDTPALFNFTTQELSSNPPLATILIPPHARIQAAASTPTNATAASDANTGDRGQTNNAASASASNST

| Compound | IC50 [1] | IC50 [2] |
| --- | --- | --- |
| CCC1(c2cccc(N3CCOc4ccccc43)c2)C2=CN=NC2NC2=C1C(=O)CC(C)(C)C2 (configuration not stated) [US20250313563, Compound 918280] | < 100 nM | < 100 nM |
| COC[C@H]1C[C@@]2(C1)C1=C(N=NC1)NC1=C2C(=O)CC(C)(C)C1 [US20250313563, Compound 912173] | 100 to 1000 nM | 100 to 1000 nM |
| Cn1cc(S(=O)(=O)N2CCC3(CC2)C2=C(N=NC2)NC2=C3C(=O)CC(C)(C)C2)cn1 [US20250313563, Compound 901467] | < 100 nM and 1000 to 5000 nM | < 100 nM and 100 to 1000 nM |
| CC[C@]1(c2cccc(N3CCc4ccncc43)c2)C2=CN=NC2NC2=C1C(=O)CC(C)(C)C2 (some centres not stated) [US20250313563, Compound 912003] | 100 to 1000 nM | < 100 nM |
| CC1(C)CC(=O)C2=C(C1)NC1=C(CN=N1)C21CN(c2ccncc2)C1 [US20250313563, Compound 912077] | > 5000 nM | > 5000 nM |
| CC[C@@]1(c2cccc(C(F)(F)F)c2)C2=C(N=NC2)NC2=C1C(=O)N(Cc1ccccc1)[C@@H]2C [US20250313563, Compound 930332] | > 5000 nM | 1000 to 5000 nM |
| CC1(C)CC(=O)C2=C(C1)NC1=C(CN=N1)[C@@]21CC[C@@H](C(F)(F)F)C1 [US20250313563, Compound 952436] | < 100 nM and 1000 to 5000 nM | < 100 nM and 1000 to 5000 nM |
| CC[C@]1(c2cccc(-c3ccncc3C)c2)C2=CN=NC2NC2=C1C(=O)N[C@]1(CCOC1)C2 (some centres not stated) [US20250313563, Compound 948640] | < 100 nM | < 100 nM |
| Cn1cc([C@H]2CC[C@]3(CC2)C2=C(N=NC2)NC2=C3C(=O)CC(C)(C)C2)cn1 [US20250313563, Compound 949322] | 1000 to 5000 nM | 100 to 1000 nM |
| CCC1(c2cccc(-c3ccncc3F)c2)C2=C(CC(C)(C)NC2=O)NC2N=NC(C(F)F)=C21 (configuration not stated) [US20250313563, Compound 950320] | < 100 nM | < 100 nM |
| CC1(C)CC(=O)C2=C(C1)NC1=C(CN=N1)[C@@]21CCN(S(=O)(=O)c2ccccc2F)C1 [US20250313563, Compound 945719] | < 100 nM | < 100 nM |
| CC1(C)CC(=O)C2=C(C1)NC1=C(CN=N1)C21CC(c2ccccc2)C1 (configuration not stated) [US20250313563, Compound 917081] | < 100 nM | < 100 nM |
| CCC1(c2cccc(C(F)(F)F)c2)C2=CN=NC2NC2=C1C(=O)N(C)C(C)(C)C2 (configuration not stated) [US20250313563, Compound 823130] | 100 to 1000 nM | < 100 nM |
| CC1(C)CC(=O)C2=C(C1)NC1=C(CN=N1)C21CCN(S(=O)(=O)c2cnc3n2CCCC3)CC1 [US20250313563, Compound 947480] | < 100 nM | < 100 nM |
| CC[C@@]1(c2cccc(-c3ccnc4c3CCCC4)c2)C2=C(N=NC2)NC2=C1C(=O)N(Cc1ccccc1)C2 [US20250313563, Compound 948552] | > 5000 nM | 100 to 1000 nM |
| CC[C@]1(c2cccc(-c3c(F)cncc3OC)c2)C2=C(N=NC2)NC2=C1C(=O)C(C)(C)C2 [US20250313563, Compound 952564] | < 100 nM and 1000 to 5000 nM | < 100 nM and 100 to 1000 nM |
| CC[C@]1(c2cccc(-c3cc(C)ncc3F)c2)C2=C(CC(C)(C)NC2=O)NC2N=NC(C(F)(F)F)=C21 (some centres not stated) [US20250313563, Compound 949644] | 1000 to 5000 nM | 100 to 1000 nM |
| CC[C@@]1(c2cccc(-c3ccncc3F)c2)C2=C(CC(C)(C)NC2=O)NC2N=NC(Cl)=C21 (some centres not stated) [US20250313563, Compound 949757] | < 100 nM and 1000 to 5000 nM | < 100 nM and 100 to 1000 nM |
| CC[C@]1(c2cccc(N(C)c3ccncc3)c2)C2=CN=NC2NC2=C1C(=O)CC(C)(C)C2 (some centres not stated) [US20250313563, Compound 874260] | 100 to 1000 nM | < 100 nM |
| CCC1(c2cccc(S(=O)(=O)CC3CC3)c2)C2=C(CC(C)(C)NC2=O)NC2N=NC(C)=C21 (configuration not stated) [US20250313563, Compound 948178] | < 100 nM | < 100 nM |
| CC[C@]1(c2cccc(C)c2)C2=C(CC(C)(C)CC2=O)NC2N=NC(C(F)(F)F)=C21 (some centres not stated) [US20250313563, Compound 883872] | > 5000 nM | 1000 to 5000 nM |
| CCC1(c2cccc(-n3ccnc3)c2)C2=CN=NC2NC2=C1C(=O)CC(C)(C)C2 (configuration not stated) [US20250313563, Compound 854926] | 100 to 1000 nM | < 100 nM |
| CC[C@@]1(c2ccccc2)C2=CN=NC2NC2=C1C(=O)C[C@@H](C(F)(F)F)C2 (some centres not stated) [US20250313563, Compound 806609] | > 1670 nM | 100 to 1000 nM |

| Compound | IC50 [1] | IC50 [2] |
| --- | --- | --- |
| CC1(C)CC(=O)C2=C(C1)NC1=C(CN=N1)C21CCN(S(=O)(=O)c2ccc(F)c(F)c2)CC1 [US20250313563, Compound 948119] | < 100 nM | < 100 nM |
| CC[C@@]1(c2cccc(-c3cncn3C)c2)C2=C(CC(C)(C)CC2=O)NC2N=NC(C)=C21 (some centres not stated) [US20250313563, Compound 913032] | < 100 nM | < 100 nM |
| CC[C@]1(c2cccc(-c3ccnc(C)c3)c2)C2=CN=NC2NC2=C1C(=O)N[C@@H](C)C2 (some centres not stated) [US20250313563, Compound 932658] | 100 to 1000 nM | < 100 nM |
| CCC1(c2cccc(S(=O)(=O)C(C)C)c2)C2=C(CC(C)(C)NC2=O)NC2N=NC(C(F)(F)F)=C21 (configuration not stated) [US20250313563, Compound 947800] | < 100 nM | < 100 nM |
| CCC1(c2cccc(-c3cnnc(C)c3)c2)C2=CN=NC2NC2=C1C(=O)CC(C)(C)C2 (configuration not stated) [US20250313563, Compound 926844] | 100 to 1000 nM | < 100 nM |
| CC1(C)CC(=O)C2=C(C1)NC1N=NC=C1[C@@]21CCCc2c(-c3ccncc3)cccc21 (some centres not stated) [US20250313563, Compound 945547] | > 5000 nM | 1000 to 5000 nM |
| CCC1(c2cccc(N(C)c3nc(C)cc(C)n3)c2)C2=CN=NC2NC2=C1C(=O)CC(C)(C)C2 (configuration not stated) [US20250313563, Compound 926304] | 1000 to 5000 nM | 100 to 1000 nM |
| CC[C@@]1(c2cccc(-c3cn(C)nc3C)c2)C2=C(CC(C)(C)NC2=O)NC2N=NC(C(F)F)=C21 (some centres not stated) [US20250313563, Compound 950497] | < 100 nM and 100 to 1000 nM | < 100 nM |
| CC[C@@]1(c2cccc(N(C)c3ncccn3)c2)C2=C(CC(C)(C)NC2=O)NC2N=NC(F)=C21 (some centres not stated) [US20250313563, Compound 949648] | < 100 nM and 1000 to 5000 nM | < 100 nM |
| CC[C@]1(c2cccc(Cc3ncccn3)c2)C2=CN=NC2NC2=C1C(=O)CC(C)(C)C2 (some centres not stated) [US20250313563, Compound 947498] | < 100 nM | < 100 nM |
| CC[C@]1(c2cccc(-c3c(C)nn(C)c3C)c2)C2=CN=NC2NC2=C1C(=O)CC(C)(C)C2 (some centres not stated) [US20250313563, Compound 911990] | < 100 nM and 100 to 1000 nM | < 100 nM |
| CC[C@@]1(c2cccc(-c3c(F)cncc3Cl)c2)C2=CN=NC2NC2=C1C(=O)NC(C)(C)C2 (some centres not stated) [US20250313563, Compound 948371] | < 100 nM and 100 to 1000 nM | < 100 nM and 100 to 1000 nM |
| CC[C@]1(c2cccc(-c3ccncc3F)c2)C2=C(CC(C)(C)NC2=O)NC2N=NC(Cl)=C21 (some centres not stated) [US20250313563, Compound 949756] | > 5000 nM | > 5000 nM |
| CC[C@]1(c2cccc(S(=O)(=O)CCOC)c2)C2=CN=NC2NC2=C1C(=O)CC(C)(C)C2 (some centres not stated) [US20250313563, Compound 943542] | < 100 nM and 1000 to 5000 nM | < 100 nM and 100 to 1000 nM |
| CC1(C)CC(=O)C2=C(C1)NC1=C(CN=N1)C2(C)c1cccc(-c2ccncc2)c1 (configuration not stated) [US20250313563, Compound 790730] | 100 to 1000 nM | < 100 nM |
| CC1(C)CC(=O)C2=C(C1)NC1=C(CN=N1)C21CCN(S(=O)(=O)c2cccc3c2OCCO3)CC1 [US20250313563, Compound 947464] | < 100 nM and 100 to 1000 nM | < 100 nM |
| CC1(C)CC(=O)C2=C(C1)NC1=C(CN=N1)[C@@]21CC[C@H](C(F)(F)F)C1 [US20250313563, Compound 952434] | 100 to 1000 nM | 100 to 1000 nM |
| CC[C@]1(c2cccc(C3=C4CC=C(OC)C=C4N=CC3)c2)C2=CN=NC2NC2=C1C(=O)NC(C)(C)C2 (some centres not stated) [US20250313563, Compound 948661] | 100 to 1000 nM | < 100 nM |
| CC1(C)CC(=O)C2=C(C1)NC1=C(CN=N1)C21COC2(CN(C(=O)C3(F)CC3)C2)C1 (configuration not stated) [US20250313563, Compound 947487] | < 100 nM | < 100 nM |
| CCC1(c2cccc(N3CCCc4ncccc43)c2)C2=CN=NC2NC2=C1C(=O)CC(C)(C)C2 (configuration not stated) [US20250313563, Compound 889639] | < 100 nM and 100 to 1000 nM | < 100 nM |
| CCC1(c2cccc(C(C)c3ncccn3)c2)C2=CN=NC2NC2=C1C(=O)CC(C)(C)C2 (configuration not stated) [US20250313563, Compound 947434] | 100 to 1000 nM | < 100 nM |
| CC[C@@]1(c2cccc(-c3c(C)nn(C)c3C)c2)C2=C(CC(C)(C)NC2=O)NC2N=NC(C(F)(F)F)=C21 (some centres not stated) [US20250313563, Compound 948421] | < 100 nM | < 100 nM |
| COc1cccc(S(=O)(=O)N2CCC3(CC2)C2=C(N=NC2)NC2=C3C(=O)CC(C)(C)C2)c1 [US20250313563, Compound 901468] | < 100 nM and 1000 to 5000 nM | < 100 nM and 100 to 1000 nM |
